{
  "source": "paper PMC9321894",
  "about": "“Design and Anticancer Properties of New Water-Soluble Ruthenium–Cyclopentadienyl Complexes” (Pharmaceuticals, 2022)",
  "key": {"[1]": {"assay": "Stability in water in presence of air (UV-vis, 1H and 31P NMR)", "assay_type": "physicochemical", "settings": "for Stability in water, Time / Stability in water, Time (Days): in presence of air, 25 °C, time without hydrolysis", "experimental": "The stability of all the complexes in water was evaluated by ^31P NMR and UV–visible spectroscopies. Generally, a 5 mm NMR tube was charged in the air with the 10 mg of each complex and D2O (0.8 mL). ^1H NMR and ^31P NMR were monitored for four days to evaluate if there was any decomposition product. Decomposition/instability of the compound can be assessed by the disappearance of the NMR signals and/or by the appearance of new signals that could not be assigned to the known complex, beyond the appearance of free mTPPMS phosphine signals. Any eventual changes in the charge transfer bands between ruthenium and ligands were followed by UV–visible in the 300–900 nm range."}, "Solubility in water": {"assay": "Solubility in water", "assay_type": "physicochemical", "settings": "in presence of air, 25 °C"}, "[2]": {"assay": "n-Octanol/water partition coefficient, shake-flask method", "assay_type": "physicochemical", "settings": "room temperature", "experimental": "The lipophilicity of the complexes was measured by the shake-flask method. Distilled water and n-octanol were mixed vigorously for 24 h at 25 °C, to promote solvent saturation in both phases, before the experiments. […] Aliquots of stock solutions were equilibrated with octanol for 4 h in a mechanical shaker. The phase ratio was 2 mL/2 mL (water/n-octanol). The aqueous and octanol layers were carefully separated (by centrifugation at 5000 rpm for 10 min), and UV–vis absorption spectra of the compounds were registered in both phases. The concentration for each sample was determined using the calibration curve. Triplicate experiments have been performed for each complex and the averages were calculated."}, "[3]": {"test_system": "MDAMB231 triple-negative breast cancer cells", "set-up": "method as in PMID 21450266, PMID 20200702, PMID 20422091", "settings": "MDAMB231, 72 h; cited from earlier work"}, "HT29 colon cancer cells [4]": {"test_system": "HT29 colon cancer cells", "set-up": "method as in PMID 21450266, PMID 20200702, PMID 20422091", "settings": "HT29, 72 h; cited from earlier work"}, "[5]": {"test_system": "A2780 ovarian cancer cells", "set-up": "method as in PMID 21450266, PMID 20200702, PMID 20422091", "settings": "A2780, 72 h; cited from earlier work"}, "[6]": {"test_system": "A2780 ovarian cancer cells", "assay": "MTT cytotoxicity assay, A2780", "assay_type": "cell-based, human", "settings": "A2780, 72 h, mean ± SD n = 3", "experimental": "(§1) The cytotoxic activity of all complexes was screened against A2780 (ovarian, Sigma-Aldrich, Lisboa, Portugal), MDAMB231 (breast, triple negative, ATCC), and HT29 (colon, ATCC) human cancer cells. Cells were grown in RPMI 1640 (A2780) or DMEM containing GlutaMax-I (MDAMB231), or McCoy’s (HT29) supplemented with 10% FBS and 1% penicillin/streptomycin (Invitrogen, Lisboa, Portugal). All cell lines were kept in a CO2 incubator (Heraeus, Hanau, Germany) with 5% CO2 at 37 °C in a humidified atmosphere. Cell viability was measured using the colorimetric MTT (3-(4,5-dimethylthiazol-2-yl)-2,5-diphenyltetrazolium bromide) assay. For the assays, cells were seeded in 200 μL of complete medium in 96-well plates and incubated at 37 °C for 24 h prior to complex treatment to allow cell adherence. The stock solutions in water (20 mM) of the complexes were freshly prepared and used for sequential dilutions in medium within the concentration range of 10^−10–10^−4 M. Cisplatin was also included in this study as a positive control. After careful removal of the medium, […] of a serial dilution of compounds in fresh medium was added to the cells, and incubation was carried out for 72 h at 37 °C. At the end of the treatment, the medium was discarded, and the cells were incubated with […] of an MTT solution in PBS (0.5 mg mL^−1). After 3 h incubation, medium was removed, and DMSO was added to solubilize the purple formazan crystals formed. The absorbance at 570 nm was measured using a plate spectrophotometer (Power Wave Xs, Bio-Tek, Winooski, VT, USA). Each experiment was repeated at least three times and each concentration tested in at least six replicates. The IC50 values were calculated from dose–response curves analyzed with the GraphPad Prism software (version 5.0)."}, "HT29 colon cancer cells [7]": {"test_system": "HT29 colon cancer cells", "assay": "MTT cytotoxicity assay, HT29", "assay_type": "cell-based, human", "settings": "HT29, 72 h; for IC50: mean ± SD n = 3", "experimental": "as §1"}, "[8]": {"test_system": "MDAMB231 triple-negative breast cancer cells", "assay": "MTT cytotoxicity assay, MDAMB231", "assay_type": "cell-based, human", "settings": "MDAMB231, 72 h; for IC50: mean ± SD n = 3", "experimental": "as §1"}},
  "note": "Like-named read-outs stand apart in the source and are kept apart here. Marks after values point to notes of the source that are not given here.",
  "data": [
    {"molecule": "[RuCp(mTPPMSNa)2(1-BI)][CF3SO3] [Compound 2]", "values": [
      {"measurement": "Stability in water, Time", "setting": "[1]", "value": 0.25, "unit": "days"},
      {"measurement": "S(H2O)", "setting": "Solubility in water", "value": 38.6, "unit": "mg/mL"},
      {"measurement": "S(H2O)", "setting": "Solubility in water; value in brackets", "value": 0.039, "unit": "M"}
    ]},
    {"molecule": "NCCCn1ccnc1.O=S(=O)([O-])C(F)(F)F.O=S(=O)([O-])c1cccc(P(c2ccccc2)c2ccccc2)c1.O=S(=O)([O-])c1cccc(P(c2ccccc2)c2ccccc2)c1.[Na+].[Na+].[Ru+2].c1cc[cH-]c1", "note": "[Compound 4, [RuCp(mTPPMSNa)2(3-ApIm)][CF3SO3]]", "values": [
      {"measurement": "Time stable in water", "setting": "[1]; aqueous solution", "value": 24, "unit": "h"},
      {"measurement": "Stability in water, Time", "setting": "[1]", "value": 1, "unit": "days"},
      {"measurement": "S(H2O)", "setting": "Solubility in water", "value": 48.6, "unit": "mg/mL"},
      {"measurement": "S(H2O)", "setting": "Solubility in water; value in brackets", "value": 0.049, "unit": "M"},
      {"measurement": "Log Po/w", "setting": "[2]", "value": "4.43 ± 0.03"}
    ]},
    {"molecule": "[RuCp(mTPPMSNa)2(1-BuIm)][CF3SO3] [Compound 3]", "values": [
      {"measurement": "Stability in water, Time", "setting": "[1]", "value": 0.12, "unit": "days"},
      {"measurement": "S(H2O)", "setting": "Solubility in water", "value": 42.8, "unit": "mg/mL"},
      {"measurement": "S(H2O)", "setting": "Solubility in water; value in brackets", "value": 0.043, "unit": "M"}
    ]},
    {"molecule": "N.N.[Cl][Pt][Cl]", "note": "[CisPt, Cisplatin]", "values": [
      {"measurement": "IC50", "setting": "[3]", "value": "39 ± 5", "unit": "µM"},
      {"measurement": "IC50", "setting": "HT29 colon cancer cells [4]", "value": "7 ± 2", "unit": "µM"},
      {"measurement": "IC50", "setting": "[5]", "value": "1.9 ± 0.1", "unit": "µM"}
    ]},
    {"molecule": "[RuCp(mTPPMSNa)(pbt)][CF3SO3] [Compound 8]", "values": [
      {"measurement": "Stability in water by NMR (in words)", "setting": "[1]; D2O, 4 days, UV–vis bands decrease due to precipitation", "value": "remained intact without the formation of new species"},
      {"measurement": "Stability in water, Time (Days)", "setting": "[1]", "value": ">4 ^[b,c] Days"},
      {"measurement": "IC50", "setting": "[6]", "value": "0.2 ± 0.08", "unit": "µM"},
      {"measurement": "S(H2O)", "setting": "Solubility in water", "value": 20.0, "unit": "mg/mL"},
      {"measurement": "S(H2O)", "setting": "Solubility in water; value in brackets", "value": 0.02, "unit": "M"},
      {"measurement": "IC50", "setting": "HT29 colon cancer cells [7]", "value": "11.3 ± 2.4", "unit": "µM"},
      {"measurement": "IC50", "setting": "[8]", "value": "25.4 ± 5", "unit": "µM"}
    ]},
    {"molecule": "COc1ccc(-n2ccnc2)cc1.O=S(=O)([O-])C(F)(F)F.O=S(=O)([O-])c1cccc(P(c2ccccc2)c2ccccc2)c1.O=S(=O)([O-])c1cccc(P(c2ccccc2)c2ccccc2)c1.[Na+].[Na+].[Ru+2].c1cc[cH-]c1", "note": "[Compound 5, [RuCp(mTPPMSNa)2(4-MpIm)][CF3SO3]]", "values": [
      {"measurement": "Stability in water, Time", "setting": "[1]", "value": 0.12, "unit": "days"},
      {"measurement": "S(H2O)", "setting": "Solubility in water", "value": 28.8, "unit": "mg/mL"},
      {"measurement": "S(H2O)", "setting": "Solubility in water; value in brackets", "value": 0.029, "unit": "M"}
    ]},
    {"molecule": "[RuCp(mTPPMSNa)(dpk)][CF3SO3] [Compound 7]", "values": [
      {"measurement": "Changes in the UV–vis spectra in aqueous solution", "setting": "[1]; over 4 days at 37 °C", "value": "insignificant"},
      {"measurement": "Stability in water, Time (Days)", "setting": "[1]", "value": ">4 ^[b] Days"},
      {"measurement": "IC50", "setting": "[6]", "value": "0.45 ± 0.3", "unit": "µM"},
      {"measurement": "S(H2O)", "setting": "Solubility in water", "value": 19.3, "unit": "mg/mL"},
      {"measurement": "S(H2O)", "setting": "Solubility in water; value in brackets", "value": 0.019, "unit": "M"},
      {"measurement": "Cytotoxicity (in words)", "setting": "HT29 colon cancer cells [7]", "value": "not cytotoxic"},
      {"measurement": "IC50", "setting": "HT29 colon cancer cells [7]", "value": "> 100", "unit": "µM"},
      {"measurement": "Cytotoxicity (in words)", "setting": "[8]", "value": "not cytotoxic"},
      {"measurement": "IC50", "setting": "[8]", "value": "> 100", "unit": "µM"},
      {"measurement": "Log Po/w", "setting": "[2]", "value": "5.95 ± 0.07"}
    ]},
    {"molecule": "O=S(=O)([O-])C(F)(F)F.O=S(=O)([O-])c1cccc(P(c2ccccc2)c2ccccc2)c1.O=S(=O)([O-])c1cccc(P(c2ccccc2)c2ccccc2)c1.[Na+].[Na+].[Ru+2].c1c[nH]cn1.c1cc[cH-]c1", "note": "[Compound 1, [RuCp(mTPPMSNa)2(ImH)][CF3SO3]]", "values": [
      {"measurement": "S(H2O)", "setting": "Solubility in water", "value": 21.4, "unit": "mg/mL"}
    ]}
  ]
}
